Test results published in patent US8476253B2, “Amide derivative” (Daiichi Sankyo Company, Limited, priority 2009, dated 2013).
Counter-ions that a name gives are not always drawn.

Columns and labels:
muscarine M3 receptor = experiment: Effect of suppressing methacholine-induced airway contraction (in vivo, intratracheal administration); design: species or system guinea pig; settings: guinea pigs, intratracheal administration 60 minutes before 30 μg/kg i.v. methacholine; AUC of increase in airway pressure over 10 minutes
Experimental: (§1) Using healthy guinea pigs (body weight, 350 to 550 g; Hartley male guinea pigs), the effect of suppressing airway contraction induced by methacholine, which is a muscarine receptor agonist, was examined by a modified method of Konzett-Roessler (Naunyn-Schmiedebergs Arch. Exp. Pathol. Pharmakol. 195, 71 [1940]) using airway pressure as an indicator.
(§2) A tracheal cannula and a venous cannula were attached to a guinea pig anesthetized with pentobarbital (50 mg/mL of solution, 0.40 to 0.50 mL/body, subcutaneous administration). An arterial cannula filled with heparin-containing physiological saline (100 U/mL) was further attached, and blood pressure and heart rate were monitored via an amplifier and an instantaneous heart rate meter. Subsequently, gallamine (20 mg/body, intravenous administration) was administered to terminate spontaneous breathing, and then 10 mL/kg of positive pressure breathing (Ugo-Basile Biological Research Apparatus, Cat. No. 7025) was rapidly performed at 60 times/min. The airway pressure during artificial breathing was detected with a pressure transducer (TP-200T or TP-400T; Nihon Kohden Corporation) attached to a side branch of the tracheal cannula, amplified (AP-601G; Nihon Kohden Corporation), and recorded in a recorder. After the airway pressure, blood pressure, and heart rate were stabilized, 30 μg/kg of methacholine was intravenously administered from the venous cannula to induce airway contraction, and the airway pressure was measured for the following 10 minutes.
A test substance was dissolved in 5% glucose solution, and a 0.5 mL/kg solution was administered intratracheally with an intratracheal administration apparatus (model 1A-1B; Penn-Century, Inc.) 60 minutes before stimulation with methacholine.
(§3) The AUC of increase in the airway pressure over 10 minutes after administration of methacholine was measured as the intensity of methacholine-induced airway contraction and calculated as an ID50 value from the inhibition rate based on the value of the control group (a 5% glucose solution intratracheal administration group).

neurokinin NK1 receptor = biological target: T1, neurokinin NK1 receptor (Cavia porcellus, UniProt P30547); experiment: Effect of suppressing substance P-induced airway contraction (in vivo, intratracheal administration); design: species or system guinea pig; settings: guinea pigs, intratracheal administration 60 minutes before 20 μg/kg i.v. SP, AUC of increase in airway pressure over 10 minutes
T1 construct: Using healthy guinea pigs (body weight, 350 to 550 g; Hartley male guinea pigs); from tissue; host or cells: live anaesthetised Hartley male guinea pigs (airway, in vivo)
T1 sequence (P30547 whole entry): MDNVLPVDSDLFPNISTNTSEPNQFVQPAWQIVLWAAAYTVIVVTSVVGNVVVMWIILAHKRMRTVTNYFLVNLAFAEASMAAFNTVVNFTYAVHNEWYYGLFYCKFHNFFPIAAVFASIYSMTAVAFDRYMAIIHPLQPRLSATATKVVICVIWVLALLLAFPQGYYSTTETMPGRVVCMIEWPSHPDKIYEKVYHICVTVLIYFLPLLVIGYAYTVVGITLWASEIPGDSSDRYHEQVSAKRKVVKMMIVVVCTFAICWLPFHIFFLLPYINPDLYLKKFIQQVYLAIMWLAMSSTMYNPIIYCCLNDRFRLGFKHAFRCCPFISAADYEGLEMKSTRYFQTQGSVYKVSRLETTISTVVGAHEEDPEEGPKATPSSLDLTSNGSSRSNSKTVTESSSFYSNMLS
Experimental: as §1, with “substance P (SP),” for “methacholine,”, “an NK1” for “a muscarine”
as §2, with “mg/mL” for “mg/mL of”, “20” for “30”, “SP” for “methacholine”
The test substance was dissolved in a 5% glucose solution, a 0.5 mL/kg solution was intratracheally administered with an intratracheal administration apparatus (model 1A-1B; Penn-Century, Inc.) 60 minutes before stimulation with SP.
as §3, with “SP” for “methacholine”, “determined” for “measured”, “SP-induced” for “methacholine-induced”, “(5%” for “(a 5%”

neurokinin NK2 receptor = biological target: T2, neurokinin NK2 receptor (Cavia porcellus, UniProt Q64077); experiment: Effect of suppressing neurokinin A-induced airway contraction (in vivo, intratracheal administration); design: species or system guinea pig; settings: guinea pigs, intratracheal administration 60 minutes before 4 μg/kg i.v. NKA; AUC of increase in airway pressure over 10 minutes
T2 construct: Using healthy guinea pigs (body weight, 350 to 550 g; Hartley male guinea pigs); from tissue; host or cells: live anaesthetised Hartley male guinea pigs (airway, in vivo)
T2 sequence (Q64077 1-402): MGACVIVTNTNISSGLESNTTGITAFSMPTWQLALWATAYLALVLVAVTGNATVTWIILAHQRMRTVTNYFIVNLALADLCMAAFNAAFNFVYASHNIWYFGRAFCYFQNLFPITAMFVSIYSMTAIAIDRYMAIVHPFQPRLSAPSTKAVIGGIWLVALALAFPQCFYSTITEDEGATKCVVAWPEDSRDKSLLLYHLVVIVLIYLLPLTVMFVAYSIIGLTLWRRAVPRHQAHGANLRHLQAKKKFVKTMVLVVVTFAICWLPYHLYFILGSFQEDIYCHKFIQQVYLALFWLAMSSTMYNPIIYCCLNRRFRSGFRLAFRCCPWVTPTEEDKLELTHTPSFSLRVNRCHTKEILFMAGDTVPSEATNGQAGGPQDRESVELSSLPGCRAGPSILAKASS
Experimental: as §1, with “neurokinin A (NKA),” for “methacholine,”, “an NK2” for “a muscarine”
as §2, with “mg/mL” for “mg/mL of”, “and” for “and then”, “4” for “30”, “NKA” for “methacholine”
The test substance was dissolved in a 5% glucose solution, and a 0.5 mL/kg solution was intratracheally administered with an intratracheal administration apparatus (model 1A-1B; Penn-Century, Inc.) 60 minutes before stimulation with NKA.
as §3, with “NKA” for “methacholine”, “determined” for “measured”, “NKA-induced” for “methacholine-induced”, “(5%” for “(a 5%”

human M3 receptor = biological target: T3, human M3 receptor (Homo sapiens, UniProt P20309); experiment: Test for binding to human M3 receptor
T3 construct: expressed in transfected cells; host or cells: CHO cells
T3 sequence (P20309 whole entry): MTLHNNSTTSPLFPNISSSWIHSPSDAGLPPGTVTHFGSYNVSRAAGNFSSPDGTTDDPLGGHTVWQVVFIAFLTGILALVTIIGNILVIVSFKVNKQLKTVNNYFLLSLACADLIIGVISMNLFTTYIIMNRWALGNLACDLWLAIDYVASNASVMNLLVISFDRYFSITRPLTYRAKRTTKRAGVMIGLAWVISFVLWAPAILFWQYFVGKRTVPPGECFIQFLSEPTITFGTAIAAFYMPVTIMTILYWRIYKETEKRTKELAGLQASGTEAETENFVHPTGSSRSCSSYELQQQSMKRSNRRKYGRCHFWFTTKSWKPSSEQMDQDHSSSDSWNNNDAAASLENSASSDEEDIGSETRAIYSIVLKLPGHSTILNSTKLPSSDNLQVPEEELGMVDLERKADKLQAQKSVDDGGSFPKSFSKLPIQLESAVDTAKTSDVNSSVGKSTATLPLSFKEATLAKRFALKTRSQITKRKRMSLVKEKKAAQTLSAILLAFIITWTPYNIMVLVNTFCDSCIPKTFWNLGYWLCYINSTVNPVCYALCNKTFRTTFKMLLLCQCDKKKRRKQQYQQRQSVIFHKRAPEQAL
Experimental: A solution of cryopreserved CHO cells expressing human M3 receptor was diluted with a buffer (50 mM tris-hydrochloride containing 0.5 mM of EDTA, pH 7.4) to obtain 5.0×10^5 of cells/mL and used as a crude membrane sample.
[N-methyl-^3H]-(−)-Scopolamine methyl chloride (GE Healthcare Japan Corporation) was diluted with 50 mM of tris-hydrochloride containing 0.5 mM of EDTA (pH 7.4), a test substance and 250 μL of the crude membrane sample solution were added to 250 μL of the mixture, and the mixture was incubated at room temperature for 60 minutes. […] The glass fiber filter paper was pretreated with a 0.1% polyethylenimine solution for 4 hours or longer to minimize non-specific binding. The filter collecting membrane components was transferred to a small-size plastic vial containing 3 mL of Pico-Fluor, and the radioactivity was measured with a liquid scintillation counter (Tri-Carb 2900TR or 2300TR; Perkin Elmer).
The effect of binding to the M3 receptor was calculated as the affinity (Ki) of the test substance for the M3 receptor from a 50% binding dose (IC50) and the affinity (Kd) of [N-methyl-^3H]-(−)-Scopolamine methyl chloride for the M3 receptor.

substance P receptor = biological target: T4, substance P receptor (Cavia porcellus, UniProt P30547); experiment: Test for binding to guinea-pig substance P receptor (crude lung membrane sample); settings: crude guinea-pig lung membrane sample, [3H]substance P; Ki from IC50 and Kd; read-out: Ki
T4 construct: A preparation of a crude lung membrane sample was prepared; from tissue; host or cells: guinea-pig lung (crude membrane sample)
T4 sequence (P30547 whole entry): as the sequence (P30547 whole entry) above
Experimental: A preparation of a crude lung membrane sample was prepared, and a test for binding of a test substance to the sample was performed according to the method described in EP0336230A2.
The binding effect of the test substance to a substance P receptor was calculated as an affinity (Ki) of the test substance for the substance P receptor from a 50% binding concentration (IC50) and an affinity (Kd) of [^3H]substance P for the substance P receptor.

human NK2 receptor = biological target: T5, human NK2 receptor (Homo sapiens, UniProt P21452); experiment: Test for binding to human NK2 receptor
T5 construct: expressed in transfected cells; host or cells: COS cells
T5 sequence (P21452 1-398): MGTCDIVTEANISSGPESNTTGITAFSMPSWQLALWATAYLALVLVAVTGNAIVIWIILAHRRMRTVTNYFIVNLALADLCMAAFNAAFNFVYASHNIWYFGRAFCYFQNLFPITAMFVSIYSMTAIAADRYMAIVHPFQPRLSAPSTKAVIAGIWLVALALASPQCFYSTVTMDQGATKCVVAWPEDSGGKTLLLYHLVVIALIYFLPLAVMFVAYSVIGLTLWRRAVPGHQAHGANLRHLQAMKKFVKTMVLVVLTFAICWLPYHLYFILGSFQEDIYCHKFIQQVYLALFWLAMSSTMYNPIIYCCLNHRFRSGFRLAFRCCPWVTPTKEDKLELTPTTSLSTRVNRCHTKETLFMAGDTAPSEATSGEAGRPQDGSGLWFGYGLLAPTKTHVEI
Experimental: A solution of cryopreserved COS cells expressing human NK2 receptor was diluted with a buffer (50 mM tris-hydrochloride containing 0.04% of bovine serum albumin [BSA], pH 7.4) to obtain a concentration of 5.0×10^5 cells/mL and used as a crude membrane sample.
[^3H]SR 48968 (GE Healthcare Japan Corporation) was diluted with a mixture of 50 mM of tris-hydrochloride (pH 7.4), 6 mM of manganese chloride tetrahydrate, 800 μg/mL of BSA, 8 μg/mL of chymostatin, 8 μg/mL of leupeptin, 80 μg/mL of bacitracin, and 20 μg/mL of phosphoramidon. […] After the reaction, the membrane components were collected on a GF/B glass fiber filter paper (Whatman; Biomedical Research and Development Laboratories, Inc.) with an automated filtration system (Brandel; Biomedical Research and Development Laboratories, Inc.). The glass fiber filter paper was pretreated with a 0.1% polyethylenimine solution for 4 hours or longer to minimize non-specific binding. The filter collecting the membrane components was transferred to a small-size plastic vial containing 3 mL of Pico-Fluor, and the radioactivity was measured with a liquid scintillation counter (Tri-Carb 2900TR or 2300TR; Perkin Elmer).
The effect of binding to the NK2 receptor was calculated as the affinity (Ki) of the test substance for the NK2 receptor from a 50% binding dose (IC50) and the affinity (Kd) of [^3H]SR 48968 for the NK2 receptor.

CN(CCN1CCC(OC(=O)Nc2ccccc2-c2ccccc2)CC1)C(=O)CCCCCCNc1ccc(C(=O)N(C)CCCN(C)C(=O)CO[C@H]2Cc3ccccc3C23CCN(CC[C@@]2(c4ccc(F)cc4)CN(C(=O)c4cc(C(F)(F)F)cc(C(F)(F)F)c4)CO2)CC3)cc1.Cl.Cl.Cl [Example 39]
ID50 (muscarine M3 receptor): 0.0559 mg/kg
ID50 (neurokinin NK1 receptor): 0.0388 mg/kg
ID50 (neurokinin NK2 receptor): 0.0336 mg/kg

CN(CCN1CCC(OC(=O)Nc2ccccc2-c2ccccc2)CC1)C(=O)CCCCCNc1ccc(C(=O)N(C)CCCN(C)C(=O)CO[C@H]2Cc3ccccc3C23CCN(CC[C@@]2(c4ccc(F)cc4)CN(C(=O)c4cc(C(F)(F)F)cc(C(F)(F)F)c4)CO2)CC3)c(Cl)c1 [Example 85, 1-(2-{[6-({4-[{3-[({[(2S)-1′-{2-[(5R)-3-[3,5-Bis(trifluoromethyl)benzoyl]-5-(4-fluorophenyl)-1,3-oxazolidin-5-yl]ethyl}-2,3-dihydrospiro[indene-1,4′-piperidin]-2-yl]oxy}acetyl)(methyl)amino]propyl}(methyl)carbamoyl]-3-chlorophenyl}amino)hexanoyl](methyl)amino}ethyl)piperidin-4-yl biphenyl-2-ylcarbamate trihydrochloride]
Ki (human M3 receptor): 1.9 nM
ID50 (muscarine M3 receptor): 0.0327 mg/kg
ED50 (neurokinin NK1 receptor; guinea pig, read-out: ID50 (the source's name)): 0.0373 mg/kg
Ki (substance P receptor): 2.2 nM
Ki (human NK2 receptor): 1 nM

CN(CCN1CCC(OC(=O)Nc2ccccc2-c2ccccc2)CC1)C(=O)CCCCCNc1nc(CC(=O)N(C)CCCN(C)C(=O)CO[C@H]2Cc3ccccc3C23CCN(CC[C@@]2(c4ccc(F)cc4)CN(C(=O)c4cc(C(F)(F)F)cc(C(F)(F)F)c4)CO2)CC3)cs1 [Example 88, 1-{2-[{6-[(4-{2-[{3-[({[(2S)-1′-{2-[(5R)-3-[3,5-Bis(trifluoromethyl)benzoyl]-5-(4-fluorophenyl)-1,3-oxazolidin-5-yl]ethyl}-2,3-dihydrospiro[indene-1,4′-piperidin]-2-yl]oxy}acetyl)(methyl)amino]propyl}(methyl)amino]-2-oxoethyl}-1,3-thiazol-2-yl)amino]hexanoyl}(methyl)amino]ethyl}piperidin-4-yl biphenyl-2-ylcarbamate trihydrochloride]
Ki (human M3 receptor): 0.31 nM
ID50 (muscarine M3 receptor): 0.006 mg/kg
Ki (substance P receptor): 1.1 nM
Ki (human NK2 receptor): 0.72 nM
